Patent US8183296B2, “Pesticide phenyloxy substituted phenylamidine derivatives” (Bayer Cropscience AG, priority 2005, dated 2012)

Experiments:
[1] = logP by HPLC on reversed-phase column (C 18), EEC Directive 79/831 Annex V.A8; format: physicochemical; conditions: C 18, 40° C., 0.1% aqueous formic acid and acetonitrile; for chromatographic logP: reversed-phase HPLC column (C 18), read-out: logPa
Procedure: Temperature: 40° C.; Mobile phases: 0.1% aqueous formic acid and acetonitrile; linear gradient from 10% acetonitrile to 90% acetonitrile.
Calibration was carried out using unbranched alkan-2-ones (comprising 3 to 16 carbon atoms) with known logP values (determination of the logP values by the retention times using linear interpolation between two successive alkanones).

Sphaerotheca fuliginea = assay: In vivo protective test on Sphaerotheca fuliginea (cucumbers); conditions: Podosphaera fuliginea, topical, 168 h, 100 ppm of active ingredient, evaluated 7 days after inoculation, read-out: efficacy
Procedure: In Vivo Protective Test on Sahaerotheca fuliginea (Cucumbers)
(§1) To produce a suitable preparation of active compound, 1 part by weight of active compound is mixed with the stated amounts of solvent and emulsifier, and the concentrate is diluted with water to the desired concentration.
To test for protect activity, young plants are sprayed with the preparation of active compound at the stated rate of application. After the spray coating has dried on, the plants are inoculated with an aqueous spore suspension of Sphaerotheca fuliginea. The plants are then placed in a greenhouse at approximately 23° C. and a relative atmospheric humidity of approximately 70%.
(§2) The test is evaluated 7 days after the inoculation. 0% means an efficacy which corresponds to that of the control, while an efficacy of 100% means that no disease is observed.

Podosphaera leucotricha = assay: In vivo protective test on Podosphaera leucotricha (apples); conditions: topical, 240 h, 100 ppm of active ingredient, evaluated 10 days after inoculation, read-out: efficacy
From the text: In Vivo Protective Test on Podosphaera leucotricha (Apples) [table] […] To test for protective activity, young plants are sprayed with the preparation of active compound at the stated rate of application. After the spray coating has dried on, the plants are inoculated with an aqueous spore suspension of the causal agent of apple mildew (Podosphaera leucotricha).

Alternaria solani = assay: In vivo protective test on Alternaria solani (leaf spot of tomato); conditions: topical, 168 h, 500 ppm of active ingredient, evaluated 7 days after inoculation, read-out: efficacy
Procedure: In Vivo Protective Test on Alternaria solani (Leaf Spot of Tomato)
as §1
To test for protective activity, young plants are sprayed with the preparation of active compound at the stated rate of application. After the spray coating has dried on, the plants are inoculated with an aqueous spore suspension of Alternatia solani. The plants remain for one day in an incubation cabinet at approximately 20° C. and a relative atmospheric humidity of 100%. Then the plants are placed in an incubation cabinet at approximately 20° C. and a relative atmospheric humidity of 96%.
The test is evaluated 7 days after the inoculation. 0% means an efficacy which corresponds to that of the control while an efficacy of 100% means that no disease is observed.

[2] = tested on: Erysiphe graminis f.sp. hordei; assay: In vivo preventive test on Erysiphe graminis (powdery mildew on barley); conditions: Blumeria graminis, topical, 168 h, 1000 ppm of active ingredient, evaluated 7 days after inoculation, read-out: efficacy
Procedure: In Vivo Preventive Test on Erysiphe gramini (Powdery Mildew on Barley)
To produce a suitable preparation of active compound, 1 part by weight of active compound or active compound combination is mixed with the stated amounts of solvent and emulsifier, and the concentrate is diluted with water to the desired concentration.
To test for preventive activity, young plants are sprayed with the preparation of active compound or active compound combination at the stated rate of application.
After the spray coating has dried on, the plants are dusted with spores of Erysiphe graminis f.sp. hordei
The plants are placed in a greenhouse at a temperature of approximately 20° C. and a relative atmospheric humidity of approximately 80% to promote the development of mildew pustules.
as §2

[3] = tested on: Puccinia recondita f. Sp. tritici; assay: In vivo preventive test on Puccinia recondita f. Sp. tritici (wheat brown rust); conditions: topical, 240 h, 1000 ppm of active ingredient, evaluated 10 days after inoculation, read-out: efficacy
Procedure: In Vivo Preventive Test on Puccinia recondita f. Sp. tritici (Wheat Brown Rust)
as §1
To test for preventive activity, young plants are […]. After the spray coating has dried on, the plants are sprayed with the preparation of active compound at the stated rate of application. The plants remain for 24 hours in an incubation cabinet at 20° C. and a relative atmospheric humidity of 100%.
The plants are placed in a greenhouse at a temperature of approximately 20° C. and a relative atmospheric humidity of approximately 80% to promote the development of rust pustules.
The test is evaluated 10 days after the inoculation. 0% means an efficacy which corresponds to that of the control, while an efficacy of 100% means that no disease is observed.

Row | SMILES | logPa [1] | chromatographic logP [1] | pest or weed control at 1000 ppm [3] [%] | also measured
1 | CCN(C)/C=N/c1cc(C)c(Oc2ccc(Cl)c(C)c2)cc1C [Example 4] | – | 2.31 | – | –
2 | CCc1cc(Oc2cc(C)c(/N=C/N(C)CC)cc2C)ccc1Cl [Example 5] | – | 2.56 | ≥ 70 | pest or weed control at 100 ppm (Sphaerotheca fuliginea): ≥ 70%; pest or weed control at 100 ppm (Podosphaera leucotricha): ≥ 70%; pest or weed control at 500 ppm (Alternaria solani): ≥ 70%; pest or weed control at 1000 ppm [2]: ≥ 70%
3 | Cc1cc(Oc2ccc(Cl)c(C(C)(C)C)c2)c(C)cc1/N=C/N(C)C1CC1 [Example 7] | 2.21 | – | – | –
4 | CCCN(C)/C=N/c1cc(C)c(Oc2ccc(Cl)c(C(C)(C)C)c2)cc1C [Example 8] | – | 3.3 | ≥ 70 | pest or weed control at 100 ppm (Sphaerotheca fuliginea): ≥ 70%; pest or weed control at 100 ppm (Podosphaera leucotricha): ≥ 70%; pest or weed control at 500 ppm (Alternaria solani): ≥ 70%; pest or weed control at 1000 ppm [2]: ≥ 70%
5 | CCN(C)/C(S)=N/c1cc(C)c(Oc2ccc(Cl)c(C(C)(C)C)c2)cc1C [Example 10] | – | 5.12 | – | pest or weed control at 100 ppm (Sphaerotheca fuliginea): ≥ 70%; pest or weed control at 100 ppm (Podosphaera leucotricha): ≥ 70%; pest or weed control at 500 ppm (Alternaria solani): ≥ 70%; pest or weed control at 1000 ppm [2]: ≥ 70%
6 | CCCN(C)/C=N/c1cc(Cl)c(Oc2ccc(Cl)c(CC)c2)cc1C [Example 11] | – | 2.84 | ≥ 70 | pest or weed control at 100 ppm (Sphaerotheca fuliginea): ≥ 70%; pest or weed control at 100 ppm (Podosphaera leucotricha): ≥ 70%; pest or weed control at 1000 ppm [2]: ≥ 70%
7 | CCc1cc(Oc2cc(C)c(/N=C/N(C)C3CC3)cc2Cl)ccc1Cl [Example 12] | 2.89 | – | – | –
8 | CCc1cc(Oc2cc(C)c(/N=C/N(C)C3CC3)cc2C)ccc1Cl [Example 15] | 2.71 | – | – | –
9 | Cc1cc(Oc2cc(C)c(/N=C/N(C)C(C)C)cc2C)ccc1Cl [Example 16] | – | 2.4 | ≥ 70 | pest or weed control at 100 ppm (Podosphaera leucotricha): ≥ 70%; pest or weed control at 500 ppm (Alternaria solani): ≥ 70%; pest or weed control at 1000 ppm [2]: ≥ 70%
10 | Cc1cc(Oc2ccc(Cl)c(C(C)C)c2)c(Cl)cc1/N=C/N(C)C1CC1 [Example 23] | 2.96 | – | – | –
11 | Cc1cc(Oc2ccc(Cl)c(C(C)(C)C)c2)c(Cl)cc1/N=C/N(C)C1CC1 [Example 24] | 3.24 | – | – | –
12 | CCCN(C)/C=N/c1cc(C)c(Oc2ccc(Cl)c(C(C)C)c2)cc1C [Example 27] | – | 3 | ≥ 70 | pest or weed control at 100 ppm (Sphaerotheca fuliginea): ≥ 70%; pest or weed control at 100 ppm (Podosphaera leucotricha): ≥ 70%; pest or weed control at 1000 ppm [2]: ≥ 70%
13 | CCN(C)/C(S)=N/c1cc(C)c(Oc2ccc(Cl)c(C(C)C)c2)cc1C [Example 29] | – | 4.81 | ≥ 70 | pest or weed control at 100 ppm (Sphaerotheca fuliginea): ≥ 70%; pest or weed control at 100 ppm (Podosphaera leucotricha): ≥ 70%
14 | Cc1cc(Oc2ccc(Br)c(C(C)C)c2)c(Cl)cc1/N=C/N(C)C1CC1 [Example 31] | 3.98 | – | – | –
15 | Cc1cc(Oc2ccc(Br)c(C(C)C)c2)c(Cl)cc1/N=C/N(C)C(C)C [Example 33] | – | 3.21 | – | –
16 | CCCN(C)/C=N/c1cc(Cl)c(Oc2ccc(Br)c(C(C)C)c2)cc1C [Example 34] | – | 2.91 | ≥ 70 | pest or weed control at 100 ppm (Sphaerotheca fuliginea): ≥ 70%; pest or weed control at 100 ppm (Podosphaera leucotricha): ≥ 70%; pest or weed control at 1000 ppm [2]: ≥ 70%
17 | CCN(C)/C(S)=N/c1cc(C)c(Oc2ccc(Cl)c(C(C)(C)C)c2)cc1C [Example 35] | 5.44 | – | ≥ 70 | –
18 | Cc1cc(Oc2ccc(Cl)c(C(C)(C)C)c2)c(Cl)cc1/N=C/N1CCCCC1 [Example 36] | 3.11 | – | – | –
19 | CCc1cc(Oc2cc(C)c(/N=C/N3CCCCC3)cc2Cl)ccc1Cl [Example 37] | 2.74 | – | – | –
20 | CCN(C)/C=N/c1cc(C#N)c(Oc2ccc(Cl)c(C(C)C)c2)cc1C [Example 38] | – | 2.45 | ≥ 70 | pest or weed control at 1000 ppm [2]: ≥ 70%
21 | Cc1cc(/N=C/N(C)C(C)C)c(Cl)cc1Oc1ccc(Cl)c(C(C)(C)C)c1 [Example 39] | – | 3.01 | ≥ 70 | pest or weed control at 100 ppm (Sphaerotheca fuliginea): ≥ 70%; pest or weed control at 1000 ppm [2]: ≥ 70%
22 | CCC(C)N(C)/C=N/c1cc(C)c(Oc2ccc(Cl)c(C(C)(C)C)c2)cc1C (stereo not drawn) [Example 40] | – | 3.2 | ≥ 70 | pest or weed control at 100 ppm (Sphaerotheca fuliginea): ≥ 70%
23 | CCC(C)N(C)/C=N/c1cc(C)c(Oc2ccc(Cl)c(C(C)C)c2)cc1C (stereo not drawn) [Example 41] | – | 2.98 | ≥ 70 | pest or weed control at 100 ppm (Sphaerotheca fuliginea): ≥ 70%
24 | CCC(C)N(C)/C=N/c1cc(Cl)c(Oc2ccc(Cl)c(C(C)C)c2)cc1C (stereo not drawn) [Example 42] | – | 2.9 | ≥ 70 | –
25 | CCC(C)N(C)/C=N/c1cc(Cl)c(Oc2ccc(Cl)c(C(C)(C)C)c2)cc1C (stereo not drawn) [Example 43] | – | 3.19 | – | –
26 | Cc1cc(Oc2cc(C)c(/N=C/N(C)C(C)C)cc2C)ccc1F [Example 44] | – | 2.29 | ≥ 70 | pest or weed control at 100 ppm (Sphaerotheca fuliginea): ≥ 70%
27 | Cc1cc(Oc2ccc(Cl)c(C(C)(C)C)c2)c(C)cc1/N=C/N1CCCCC1 [Example 45] | 3.02 | – | – | –
28 | CCN(C)/C=N/c1cc(C)c(Oc2ccc(Cl)c(CC(C)(C)C)c2)cc1C [Example 46] | 3.11 | – | – | –
29 | CCN(C)/C=N/c1cc(C)c(Oc2ccc(Cl)c(C[Si](C)(C)C)c2)cc1C [Example 47] | 3.01 | – | – | –
30 | CCN(C)/C=N/c1cc(C)c(Oc2ccc(Cl)c(C3CCCCC3)c2)cc1C [Example 48] | 3.18 | – | – | –

Continued, in another order:

Row | logPa [1] | chromatographic logP [1] | SMILES | pest or weed control at 1000 ppm [3] [%] | also measured
31 | 2.80 | – | Cc1cc(Oc2cc(Cl)c(/N=C/N3CCCCC3C)cc2C)ccc1Cl (racemic) [Example 52] | – | –
32 | 3.33 | – | Cc1cc(/N=C/N2CCCCC2C)c(Cl)cc1Oc1ccc(Cl)c(C(C)(C)C)c1 (racemic) [Example 54] | – | –
33 | 3.07 | – | Cc1cc(/N=C/N2CCCCC2C)c(Cl)cc1Oc1ccc(Cl)c(C(C)C)c1 (racemic) [Example 62] | – | –
34 | – | 2.39 | CCN(C)/C=N/c1cc(C)c(Oc2ccc(Cl)c(C)c2)cc1Cl [Example 49] | – | –
35 | – | 2.48 | Cc1cc(Oc2cc(Cl)c(/N=C/N(C)C(C)C)cc2C)ccc1Cl [Example 50] | – | –
36 | 2.58 | – | Cc1cc(Oc2cc(Cl)c(/N=C/N3CCCCC3)cc2C)ccc1Cl [Example 51] | – | –
37 | 3.25 | – | Cc1cc(/N=C/N2CCCCC2)c(Cl)cc1Oc1ccc(Cl)c(C(C)(C)C)c1 [Example 53] | – | –
38 | – | 2.95 | CCCCc1cc(Oc2cc(C)c(/N=C/N(C)CC)cc2C)ccc1Cl [Example 55] | ≥ 70 | –
39 | – | 2.92 | CCN(C)/C=N/c1cc(C)c(Oc2ccc(Cl)c(CC(C)C)c2)cc1C [Example 56] | ≥ 70 | –
40 | 2.26 | – | CCN(C)/C=N/c1cc(C)c(Oc2ccc(Cl)c(C(C)(C)OC)c2)cc1C [Example 57] | – | –
41 | – | 2.78 | CCN(C)/C=N/c1cc(C)c(Oc2ccc(Cl)c(C(C)C)c2)cc1Cl [Example 60] | – | –
42 | 3.25 | – | Cc1cc(Oc2ccc(Cl)c(C(C)(C)C)c2)c(C)cc1/N=C/N1CCC(F)(F)CC1 [Example 61] | – | –
43 | – | 2.67 | CCN(C)/C=N/c1cc(Br)c(Oc2ccc(Cl)c(C(C)(C)C)c2)cc1C [Example 63] | – | –
44 | 3.28 | – | CCN(C)/C=N/c1cc(C)c(Oc2ccc(Cl)c(C3CCCC3)c2)cc1C [Example 64] | – | –
45 | 3.19 | – | Cc1cc(Oc2ccc(Cl)c(CC(C)(C)C)c2)c(C)cc1/N=C/N1CCCCC1 [Example 65] | – | –
